According to patent US8765712B2, “Agent for preventing and treating pityriasis versicolor” (Justus-Liebig-Universitaet Giessen, priority 2009, dated 2014):
“Also recorded” adds a separate entry of the source.

Experiments:
[1] = tested on: M. furfur CBS 1878; assay: Agar diffusion assay on pigment-inducing medium (p-agar) with TRP as sole nitrogen source; assay type: cell-based, Malassezia furfur
Method: The pigment-inducing medium (p-agar) is composed of (for 1 liter medium)
After autoclaving for 30 min at 1 bar, the following is added:
At approx. 50° C., the following heat-labile component is added:
The pH value is approximately pH 5.0.
Each 25 ml of the medium are poured into petri dishes with a diameter of 10 cm. A suspension of M. furfur CBS 1878 (approx. 5 inoculation loops of a strain previously grown on Dixon's agar) is suspended in 1 ml aq. dest., transferred to the p-agar and spread by tilting the plate. […] The pigment composition can be determined after extraction and separation via thin layer chromatography.
For this purpose, M. furfur CBS 1878 is spread on the surface of an agar plate with pigment-inducing medium as describe above, subsequently 4 mm-holes are punched into the agar using a sterile punch. […] The agar diffusion assay is performed with transaminase inhibitor e.g. aminooxyacetate (Sigma) in water, which is adjusted to pH 5 with 1 n NaOH. Concentrations are 0.05 molar top left; 0.1 molar top right; 0.25 molar bottom left, and 0.5 molar bottom right.

[2] = tested on: pityriasis versicolor; assay: Topical application in humans; assay type: in vivo
Source text: Transaminase inhibitors such as aminooxyacetate and/or cycloserine, e.g. D-cycloserine, DL-cycloserine, L-cycloserine or one of the derivatives thereof like e.g. terizidone are suitable for an application in humans. A topical application of 5% in unguentum emulsificans aquosum, applied over several days, is well tolerated without side effects. For prophylactic purposes, a 0.05-5% w/w preparation is used, preferably as shaking mixture/suspension cutanea aquosa, aqueous, oily, or alcoholic suspension, emulsion, paste, cream, ointment, spray, lipophilic gel, hydrophilic gel or plaster, shampoo, bath additive or mud, since the entire body should be treated if possible. For prophylaxis, application is performed daily up to several-day intervals. The same applies to the therapeutic use. D-cycloserine is preferably used in aqueous solution, e.g. 0.2 molar, adjusted to pH 7 with e.g. phosphate buffer.

[3] = tested on: M. furfur; assay: Agar diffusion assay on complete medium Dixon's agar; conditions: 4 days, concentrations as in FIG. 1 (0.05-0.5 molar)
Method: For this purpose, an identical experimental approach as described above is chosen and the fungus is grown on a complete medium Dixon's agar for 4 days. Transaminase inhibitor, e.g. aminooxyacetate solution (e.g. Sigma) or D-cycloserine, DL-cycloserine, L-cycloserine or a derivative thereof such as e.g. terizidone, is added in above mentioned concentrations at the beginning of the experiment.

Structure (SMILES)	suppression of pigment formation in vitro [1]	suppression of pigment formation in vivo in humans [2]	further results
NC1CONC1=O (racemic) [DL-cycloserine]	comparable suppression	comparable suppression	–
N[C@H]1CONC1=O [L-cycloserine]	comparable suppression	comparable suppression	–
O=C1NOCC1/N=C/c1ccc(/C=N/C2CONC2=O)cc1 (stereo not drawn) [terizidone]	inhibit pigment formation	–	–
N[C@@H]1CONC1=O [D-cycloserine]	comparable suppression	comparable suppression	healing of lesions ([2]; aqueous solution 0.2 molar, pH 7 (phosphate buffer), twice a day, after three days): complete healing of lesions; side effects / tolerability ([2]; aqueous solution 0.2 molar, pH 7, twice a day): without side effects and is very well tolerated
Cl.NOCC(=O)O.NOCC(=O)O [aminooxyacetate, O-(carboxymethyl)hydroxylamine hemihydrochloride]	–	–	pigment synthesis (tryptophan-dependent pathway) ([1]; 4-days old culture, TRP as sole nitrogen source, 20 μl in 4 mm holes, 0.05, 0.1, 0.25, 0.5 molar in water, pH 5, hemihydrochloride): completely inhibited; also recorded: abolished; growth of the fungus ([1]; pigment-inducing medium, TRP as sole nitrogen source, 0.05-0.5 molar, pH 5): inhibited; effect of specific inhibition of transamination on complete medium [3]: no effect
